Patent US9884849B2, “Fluorinated benzofuranyl-pyrimidine derivatives containing a sulfoximine group” (Bayer Pharma Aktiengesellschaft, priority 2014, dated 2018)
Read-outs that look alike come from different tables or passages of the source.

Experiments:
[1] = biological target: T1, CDK2/CycE (Homo sapiens, UniProt P24941); experiment: CDK2/CycE high ATP kinase assay (Method 2b, TR-FRET); assay type: biochemical; settings: 2 mM ATP
T1 construct: GST; purchased ProQinase GmbH (Freiburg, Germany); host or cells: insect cells (Sf9)
Protocol: 2b. CDK2/CycE High ATP Kinase Assay:
CDK2/CycE-Inhibitory Activity of Compounds of the Present Invention at 2 mM Adenosine-Tri-Phosphate (ATP) was Quantified Employing the CDK2/CycE TR-FRET (TR-FRET=Time Resolved Fluorescence Energy Transfer) Assay as Described in the Following Paragraphs.
Recombinant fusion proteins of GST and human CDK2 and of GST and human CycE, expressed in insect cells (Sf9) and purified by Glutathion-Sepharose affinity chromatography, were purchase from ProQinase GmbH (Freiburg, Germany). As substrate for the kinase reaction biotinylated peptide biotin-Ttds-YISPLKSPYKISEG (C-terminus in amid form) was used which can be purchased e.g. form the company JERINI peptide technologies (Berlin, Germany).
For the assay 50 nl of a 100 fold concentrated solution of the test compound in DMSO was pipetted into a black low volume 384 well microtiter plate (Greiner Bio-One, Frickenhausen, Germany), 2 yl of a solution of CDK2/CycE in aqueous assay buffer [50 mM Tris/HCl pH 8.0, 10 mM MgCl2, 1.0 mM dithiothreitol, 0.1 mM sodium ortho-vanadate, 0.01% (v/v) Nonidet-P40 (Sigma)] were added and the mixture was incubated for 15 min at 22° C. to allow pre-binding of the test compounds to the enzyme before the start of the kinase reaction. […] The concentration of CDK2/CycE was adjusted depending of the activity of the enzyme lot and was chosen appropriate to have the assay in the linear range, typical concentrations were in the range of 15 ng/ml. The reaction was stopped by the addition of 5 yl of a solution of TR-FRET detection reagents (0.2 μM streptavidine-XL665 [Cisbio Bioassays, Codolet, France] and 1 nM anti-RB(pSer807/pSer811)-antibody from BD Pharmingen [#558389] and 1.2 nM LANCE EU-W1024 labeled anti-mouse IgG antibody [Perkin-Elmer, product no. AD0077, as an alternative a Terbium-cryptate-labeled anti-mouse IgG antibody from Cisbio Bioassays can be used]) in an aqueous EDTA-solution (100 mM EDTA, 0.2% (w/v) bovine serum albumin in 100 mM HEPES/NaOH pH 7.0).
The resulting mixture was incubated 1 h at 22° C. to allow the formation of complex between the phosphorylated biotinylated peptide and the detection reagents. Subsequently the amount of phosphorylated substrate was evaluated by measurement of the resonance energy transfer from the Eu-chelate to the streptavidine-XL. Therefore, the fluorescence emissions at 620 nm and 665 nm after excitation at 350 nm were measured in a TR-FRET reader, e.g. a Rubystar (BMG Labtechnologies, Offenburg, Germany) or a Viewlux (Perkin-Elmer). The ratio of the emissions at 665 nm and at […] was taken as the measure for the amount of phosphorylated substrate. The data were normalised (enzyme reaction without inhibitor=0% inhibition, all other assay components but no enzyme=100% inhibition).

[2] = test system: DU145 cells; experiment: Proliferation assay DU145 (Method 3); assay type: cell-based, human; settings: DU145, 4 days, crystal violet, read-out: Inhibition of DU145 cell proliferation IC50
Protocol: (§1) Cultivated tumour cells (HeLa, human cervical tumour cells, ATCC CCL-2; NCI-H460, human non-small cell lung carcinoma cells, ATCC HTB-177; A2780, human ovarian carcinoma cells, ECACC #93112519; DU 145, hormone-independent human prostate carcinoma cells, ATCC HTB-81; HeLa-MaTu-ADR, multidrug-resistant human cervical carcinoma cells, EPO-GmbH Berlin; Caco-2, human colorectal carcinoma cells, ATCC HTB-37; B16F10, mouse melanoma cells, ATCC CRL-6475) were plated at a density of 5,000 cells/well (DU145, HeLa-MaTu-ADR), 3,000 cells/well (NCI-H460, HeLa), 2,500 cells/well (A2780), 1,500 cells/well (Caco-2), or 1,000 cells/well (B16F10) in a 96-well multititer plate in 200 μL of their respective growth medium supplemented 10% fetal calf serum. After 24 hours, the cells of one plate (zero-point plate) were stained with crystal violet (see below), while the medium of the other plates was replaced by fresh culture medium (200 μl), to which the test substances were added in various concentrations (0 μM, as well as in the range of 0.001-10 μM; the final concentration of the solvent dimethyl sulfoxide was 0.5%). The cells were incubated for 4 days in the presence of test substances. Cell proliferation was determined by staining the cells with crystal violet: the cells were fixed by adding 20 μl/measuring point of an 11% glutaric aldehyde solution for 15 minutes at room temperature. After three washing cycles of the fixed cells with water, the plates were dried at room temperature. The cells were stained by adding 100 μl/measuring point of a 0.1% crystal violet solution (pH 3.0). After three washing cycles of the stained cells with water, the plates were dried at room temperature. The dye was dissolved by adding 100 μl/measuring point of a 10% acetic acid solution. The extinction was determined by photometry at a wavelength of 595 nm. The change of cell number, in percent, was calculated by normalization of the measured values to the extinction values of the zero-point plate (=0%) and the extinction of the untreated (0 μm) cells (=100%). The IC50 values (inhibitory concentration at 50% of maximal effect) were determined by means of a 4 parameter fit.

[3] = test system: Caco-2 cells; experiment: Proliferation assay Caco-2 (Method 3); assay type: cell-based, human; settings: Caco-2, 4 days, crystal violet, read-out: Inhibition of Caco-2 cell proliferation IC50
Protocol: as §1

Structure (SMILES) | IC50 [1] [µM] | IC50 ([2]; Homo sapiens, DU-145, 96 h) [µM] | IC50 ([3]; Homo sapiens, Caco-2, 96 h) [µM] | IC50 [2] [µM] | IC50 [3] [µM]
CS(=O)(Cc1cc(F)cc(Nc2ncc(F)c(-c3ccc(F)c4ccoc34)n2)c1)=NC#N (single isomer, unassigned) [Example 8, [(3-Fluoro-5-{[5-fluoro-4-(4-fluoro-1-benzofuran-7-yl)pyrimidin-2-yl]amino}benzyl)(methyl)-oxido-λ^6-sulfanylidene]cyanamide] | 0.812 | 0.034 | 0.043 | – | –
CS(=N)(=O)Cc1cccc(Nc2ncc(F)c(-c3ccc(F)c4ccoc34)n2)c1 (racemic) [Example 4, (rac)-5-Fluoro-4-(4-fluoro-1-benzofuran-7-yl)-N-{3-[(S-methylsulfonimidoyl)-methyl]phenyl}-pyrimidin-2-amine] | 0.51 | 0.169 | 0.141 | – | –
CS(=O)(Cc1cc(F)cc(Nc2ncc(F)c(-c3ccc(F)c4ccoc34)n2)c1)=NC#N (single isomer, unassigned) [Example 9, [(3-Fluoro-5-{[5-fluoro-4-(4-fluoro-1-benzofuran-7-yl)pyrimidin-2-yl]amino}benzyl)(methyl)-oxido-λ^6-sulfanylidene]cyanamide] | 2.23 | – | – | 0.034 | 0.054
CS(=N)(=O)Cc1cc(F)cc(Nc2ncc(F)c(-c3ccc(F)c4ccoc34)n2)c1 (single isomer, unassigned) [Example 11, 5-Fluoro-4-(4-fluoro-1-benzofuran-7-yl)-N-{3-fluoro-5-[(S-methylsulfonimidoyl)-methyl]-phenyl}-pyrimidin-2-amine] | 0.913 | 0.041 | 0.047 | – | –
Cc1cc(CS(C)(=N)=O)cc(Nc2ncc(F)c(-c3ccc(F)c4ccoc34)n2)c1 (racemic) [Example 16, (rac)-5-Fluoro-4-(4-fluoro-1-benzofuran-7-yl)-N-{3-methyl-5-[(S-methylsulfonimidoyl)-methyl]phenyl}pyrimidin-2-amine] | 0.491 | 0.106 | 0.06 | – | –
CS(=O)(Cc1cc(F)cc(Nc2ncc(F)c(-c3ccc(F)c4ccoc34)n2)c1)=NC#N (racemic) [Example 7, (rac)-[(3-Fluoro-5-{[5-fluoro-4-(4-fluoro-1-benzofuran-7-yl)pyrimidin-2-yl]amino}benzyl)(methyl)-oxido-λ^6-sulfanylidene]cyanamide] | 0.652 | 0.051 | 0.075 | – | –
CS(=N)(=O)Cc1cc(F)cc(Nc2ncc(F)c(-c3ccc(F)c4ccoc34)n2)c1 (racemic) [Example 10, (rac)-5-Fluoro-4-(4-fluoro-1-benzofuran-7-yl)-N-{3-fluoro-5-[(S-methylsulfonimidoyl)-methyl]-phenyl}-pyrimidin-2-amine] | 1.8 | 0.072 | 0.104 | – | –
CS(=N)(=O)Cc1cc(F)cc(Nc2ncc(F)c(-c3ccc(F)c4ccoc34)n2)c1 (single isomer, unassigned) [Example 12, 5-Fluoro-4-(4-fluoro-1-benzofuran-7-yl)-N-{3-fluoro-5-[(S-methylsulfonimidoyl)-methyl]-phenyl}-pyrimidin-2-amine] | 1.25 | – | – | 0.062 | 0.057
CS(=O)(Cc1cccc(Nc2ncc(F)c(-c3ccc(F)c4ccoc34)n2)c1)=NC#N (racemic) [Example 1, (rac)-[(3-{[5-Fluoro-4-(4-fluoro-1-benzofuran-7-yl)pyrimidin-2-yl]amino}benzyl)(methyl)oxido-λ^6-sulfanylidene]cyanamide] | 0.56 | 0.112 | 0.11 | – | –
CS(=N)(=O)Cc1cccc(Nc2ncc(F)c(-c3ccc(F)c4ccoc34)n2)c1 (single isomer, unassigned) [Example 5, 5-Fluoro-4-(4-fluoro-1-benzofuran-7-yl)-N-{3-[(S-methylsulfonimidoyl)-methyl]-phenyl}-pyrimidin-2-amine] | 0.802 | 0.186 | – | – | 0.23
CS(=O)(Cc1cc(Nc2ncc(F)c(-c3ccc(F)c4ccoc34)n2)cc(S(F)(F)(F)(F)F)c1)=NC#N (racemic) [Example 17, (rac)-{[3-{[5-fluoro-4-(4-fluoro-1-benzofuran-7-yl)pyrimidin-2-yl]amino}-5-(pentafluoro-λ^6-sulfanyl)benzyl](methyl)oxido-λ^6-sulfanylidene}cyanamide] | 1.46 | 0.094 | 0.111 | – | –
CS(=N)(=O)Cc1cc(Nc2ncc(F)c(-c3ccc(F)c4ccoc34)n2)cc(S(F)(F)(F)(F)F)c1 (racemic) [Example 18, (rac)-5-Fluoro-4-(4-fluoro-1-benzofuran-7-yl)-N-{3-[(S-methylsulfonimidoyl)methyl]-5-(pentafluoro-λ^6-sulfanyl)phenyl}pyrimidin-2-amine] | 1.54 | 0.141 | 0.152 | – | –
CS(=O)(Cc1cccc(Nc2ncc(F)c(-c3ccc(F)c4ccoc34)n2)c1)=NC#N (single isomer, unassigned) [Example 3, [(3-{[5-Fluoro-4-(4-fluoro-1-benzofuran-7-yl)pyrimidin-2-yl]amino}benzyl)(methyl)oxido-λ^6-sulfanylidene]cyanamide] | 0.475 | 0.105 | 0.144 | – | –
CS(=O)(Cc1cccc(Nc2ncc(F)c(-c3ccc(F)c4ccoc34)n2)c1)=NC#N (single isomer, unassigned) [Example 2, [(3-{[5-Fluoro-4-(4-fluoro-1-benzofuran-7-yl)pyrimidin-2-yl]amino}benzyl)(methyl)oxido-λ^6-sulfanylidene]cyanamide] | 0.353 | – | – | 0.054 | 0.087
Cc1cc(CS(C)(=O)=NC#N)cc(Nc2ncc(F)c(-c3ccc(F)c4ccoc34)n2)c1 (single isomer, unassigned) [Example 14, [(3-{[5-Fluoro-4-(4-fluoro-1-benzofuran-7-yl)pyrimidin-2-yl]amino}-5-methylbenzyl)-(methyl)oxido-λ^6-sulfanylidene]cyanamide] | 0.846 | 0.066 | 0.061 | – | –
Cc1cc(CS(C)(=O)=NC#N)cc(Nc2ncc(F)c(-c3ccc(F)c4ccoc34)n2)c1 (single isomer, unassigned) [Example 15, [(3-{[5-Fluoro-4-(4-fluoro-1-benzofuran-7-yl)pyrimidin-2-yl]amino}-5-methylbenzyl)-(methyl)oxido-λ^6-sulfanylidene]cyanamide] | 0.835 | – | – | 0.101 | 0.068
